Measured values from US20250115578A1, “AROMATIC FUSED RING NAV1.8 INHIBITOR, AND USE THEREOF” (CHENGDU KANGHONG PHARMACEUTICAL CO., LTD., priority 2022, published 2025).

How the values were obtained:
hNav1.8 = hNav1.8 (Homo sapiens (Human), UniProt Q9Y5Y9); experiment: Manual patch clamp, Method 1 (CHO cell line stably expressing hNav1.8); format: cell-based; conditions: for inhibition at 0.01 µM: 10 nM; for inhibition at 0.01 µM / inhibition at 0.1 µM: Method 1, CHO-hNav1.8, read-out: Inhibition rate of hNav1.8; for inhibition at 0.1 µM: 100 nM; for IC50: Method 1, CHO-hNav1.8, manual patch clamp, resting state, read-out: IC50 inhibitory activity against hNav1.8
Sequence of hNav1.8 (Q9Y5Y9 whole entry): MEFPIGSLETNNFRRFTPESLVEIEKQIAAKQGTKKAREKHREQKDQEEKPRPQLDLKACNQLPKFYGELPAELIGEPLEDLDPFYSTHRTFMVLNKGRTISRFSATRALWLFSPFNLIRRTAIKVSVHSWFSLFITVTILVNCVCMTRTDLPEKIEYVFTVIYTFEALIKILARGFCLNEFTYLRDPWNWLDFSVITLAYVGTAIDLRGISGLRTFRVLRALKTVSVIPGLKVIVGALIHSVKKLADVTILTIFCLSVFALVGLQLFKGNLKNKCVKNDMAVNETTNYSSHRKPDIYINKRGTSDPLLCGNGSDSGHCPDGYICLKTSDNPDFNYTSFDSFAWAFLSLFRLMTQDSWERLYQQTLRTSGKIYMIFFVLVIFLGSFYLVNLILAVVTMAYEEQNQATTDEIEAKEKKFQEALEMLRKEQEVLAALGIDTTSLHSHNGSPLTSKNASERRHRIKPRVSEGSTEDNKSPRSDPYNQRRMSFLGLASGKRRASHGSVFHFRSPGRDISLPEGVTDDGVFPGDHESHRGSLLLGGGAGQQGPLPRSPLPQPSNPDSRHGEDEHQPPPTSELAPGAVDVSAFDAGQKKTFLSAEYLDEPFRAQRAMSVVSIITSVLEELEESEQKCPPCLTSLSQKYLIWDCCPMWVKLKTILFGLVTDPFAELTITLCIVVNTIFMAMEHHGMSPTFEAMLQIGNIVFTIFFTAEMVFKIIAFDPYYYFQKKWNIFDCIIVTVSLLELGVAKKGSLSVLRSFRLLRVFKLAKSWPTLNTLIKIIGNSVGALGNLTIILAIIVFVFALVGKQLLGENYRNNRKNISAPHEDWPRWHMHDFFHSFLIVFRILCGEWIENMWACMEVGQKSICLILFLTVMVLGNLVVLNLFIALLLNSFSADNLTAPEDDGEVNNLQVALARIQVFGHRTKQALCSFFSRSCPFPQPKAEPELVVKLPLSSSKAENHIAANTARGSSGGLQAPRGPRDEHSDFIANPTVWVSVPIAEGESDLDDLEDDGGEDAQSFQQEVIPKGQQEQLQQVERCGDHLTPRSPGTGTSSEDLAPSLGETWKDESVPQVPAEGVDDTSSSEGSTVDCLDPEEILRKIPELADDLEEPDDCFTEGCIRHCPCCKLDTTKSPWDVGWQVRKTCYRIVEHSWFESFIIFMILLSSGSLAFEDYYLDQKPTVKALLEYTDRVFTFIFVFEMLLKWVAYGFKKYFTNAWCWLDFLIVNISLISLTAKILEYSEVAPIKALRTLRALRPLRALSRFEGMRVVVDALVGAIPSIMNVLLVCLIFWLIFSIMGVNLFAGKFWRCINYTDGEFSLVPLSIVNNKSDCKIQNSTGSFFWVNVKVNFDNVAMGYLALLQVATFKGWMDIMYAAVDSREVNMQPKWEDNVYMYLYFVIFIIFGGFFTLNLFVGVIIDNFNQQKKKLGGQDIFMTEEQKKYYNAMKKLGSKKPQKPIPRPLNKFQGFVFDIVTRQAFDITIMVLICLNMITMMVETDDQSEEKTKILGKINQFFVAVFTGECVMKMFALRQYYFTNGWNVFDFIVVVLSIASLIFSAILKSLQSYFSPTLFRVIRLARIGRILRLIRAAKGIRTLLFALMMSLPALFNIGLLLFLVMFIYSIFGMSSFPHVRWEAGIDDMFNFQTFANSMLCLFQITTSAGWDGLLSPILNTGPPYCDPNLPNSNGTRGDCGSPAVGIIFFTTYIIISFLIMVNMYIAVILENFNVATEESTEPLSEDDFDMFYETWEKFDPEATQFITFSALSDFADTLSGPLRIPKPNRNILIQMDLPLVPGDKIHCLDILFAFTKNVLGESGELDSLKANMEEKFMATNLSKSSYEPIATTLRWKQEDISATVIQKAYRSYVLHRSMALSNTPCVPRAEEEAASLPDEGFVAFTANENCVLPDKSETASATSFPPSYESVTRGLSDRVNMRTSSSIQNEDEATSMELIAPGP

Human Nav1.8 ion channel = Human Nav1.8 ion channel (Homo sapiens (Human), UniProt Q9Y5Y9); experiment: Manual patch clamp, Method 2 (HEK293 cells stably expressing human Nav1.8, resting state); format: cell-based; conditions: Method 2, HEK293-hNav1.8, resting state, 1 μM TTX; read-out: IC50 inhibitory activity against hNav1.8
[1] = Stability assay for human liver microsomes in vitro; format: in vitro ADME; conditions: 1 μM compound, 0.5 mg/mL liver microsomes, read-out: Human liver microsome stability T1/2
Description: • Human liver microsomes, purchased from Corning or Xenotech, stored in a −80° C. refrigerator. • Nicotinamide adenine dinucleotide phosphate (NADPH), Chem-impex international, 00616 • Control compounds: testosterone, diclofenac, propafenone
• Water bath (HH-60, Guohua, Changzhou, China) • Pipette workstation (PP-550DS, Apricot, Covina, USA) • Centrifuge (5810R, Eppendorf, Hamburg, Germany) • Mass Spectrometer (Sciex API 4000, Singapore) • High Performance Liquid Chromatography (LC 20-AD, Shimadzu, Kyoto, Japan) • Sampler (ADDA, Apricot Designs, California, USA)
• Stock solution: 10 mM in DMSO • Working solution concentration preparation: 10 mM stock solution was diluted to 100 μM with 100% acetonitrile (organic phase content: 99% ACN, 1% DMSO)
Two 96-well incubation plates were named T60 incubation plate and NCF60 incubation plate.
445 μL microsomal working solution (liver microsomal protein concentration: 0.56 mg/mL) was added to the T60 and NCF60 incubation plates respectively, then the incubation plates above were placed in a water bath at 37° C. for pre-incubation approximately 10 minutes.
After the pre-incubation finished, 5 μL of the test compound working solution was added to the T60 and NCF60 incubation plates respectively, and mixed well. 50 μL potassium phosphate buffer was added to each well on the NCF60 incubation plate to start the reaction. 180 μL termination solution (acetonitrile solution containing 200 ng/mL tolbutamide and 200 ng/mL labetalol) and 6 uL working solution of NADPH regeneration system were added to the TO termination plate, and 54 μL samples were removed from the T60 incubation plate to the TO termination plate (TO sample generated). The reaction was initiated by adding 44 μL of NADPH regenerating system working solution per well on the T60 incubation plate. Only 54 μL microsomal working solution, 6 uL NADPH regeneration system working solution, and 180 μL termination solution were added to the Blank plate. Therefore, in the samples of the test or control compounds, the final reaction concentration of the compounds, testosterone, diclofenac and propafenone was 1 μM, the concentration of the liver microsomes was 0.5 mg/mL, and the final concentration of DMSO and acetonitrile in the reaction system was 0.01% (v/v) and 0.99% (v/v), respectively.
After incubation for an appropriate time (e.g. 5, 10, 20, 30, and 60 minutes), 180 μL of termination solution (acetonitrile solution containing 200 ng/mL tolbutamide and 200 ng/mL labetalol) was added to the sample hole of each termination plate, respectively. After that, 60 μL sample was removed from the T60 incubation plate to terminate the reaction.
All sample plates were shaken evenly and centrifuged at 3220×g for 20 min. Then 80 μL supernatant was taken from each well and diluted to 240 μL pure water for LC-MS/MS analysis.
All samples were injected for analysis.

| Structure (SMILES) | inhibition at 0.01 µM (hNav1.8) | inhibition at 0.1 µM (hNav1.8) | IC50 (hNav1.8) | IC50 (Human Nav1.8 ion channel) | half-life at 1 µM [1] |
| --- | --- | --- | --- | --- | --- |
| NC(=O)c1cc(NC(=O)c2nc3ccccc3nc2N2CCCC(F)(F)CC2)ccc1F [Example 02, N-(3-carbamoyl-4-fluorophenyl)-3-(4,4-difluoroazepan-1-yl)quinoxaline-2-carboxamide] | 66.1% | 96.1% | 5.3 nM | 2.82 nM | 58.8 min |
| NC(=O)c1cc(NC(=O)c2nc3ccccc3nc2N2CCCC(F)(F)CC2)ccn1 [Example 05, N-(2-carbamoylpyridin-4-yl)-3-(4,4-difluoroazepan-1-yl)quinoxaline-2-carboxamide] | 46.7% | 90.5% | 8.9 nM | 21.3 nM | 93.7 min |
| NC(=O)c1cc(NC(=O)c2cc3ccccc3nc2N2CCCC(F)(F)CC2)ccn1 [Example 08, N-(2-carbamoylpyridin-4-yl)-2-(4,4-difluoroazepan-1-yl)quinoline-3-carboxamide] | 75.4% | 96.6% | 3.3 nM | 1.74 nM | 23 min |
| NC(=O)c1cc(NC(=O)c2cc3cc(F)c(F)cc3nc2N2CCCC(F)(F)CC2)ccn1 [Example 10, N-(2-carbamoylpyridin-4-yl)-2-(4,4-difluoroazepan-1-yl)-6,7-difluoroquinoline-3-carboxamide] | 95.5% | 99.1% | 0.784 nM | 0.46 nM | 92.7 min |
| NS(=O)(=O)c1cc(NC(=O)c2cc3ccccc3nc2N2CCCC(F)(F)CC2)ccn1 [Example 14, 2-(4,4-difluoroazepan-1-yl)-N-(2-sulfamoylpyridine-4-yl) quinoline-3-carboxamide] | 98% | 99.6% | 0.34 nM | 0.725 nM | > 145 min |
| NS(=O)(=O)c1cccc(NC(=O)c2cc3cc(F)c(F)cc3nc2N2CCCC(F)(F)CC2)c1 [Example 16, 2-(4,4-difluoroazepan-1-yl)-6,7-difluoro-N-(3-sulfamoylphenyl) quinoline-3-carboxamide] | 99.8% | 100% | 0.084 nM | 0.071 nM | 41.3 min |
